Measurements as given in patent publication US20260258500A1, “BIOMARKER FOR METASTATIC BLADDER CANCER” (DONG-A UNIVERSITY RESEARCH FOUNDATION FOR INDUSTRY-ACADEMY …, priority 2022, published 2026).

Experiments:
Type in all cases: cell-based, human
[1] = tested on: 5637 parental cell line (P0); assay: MTT cell viability after gemcitabine treatment, parental cell line; details: C of FIG. 1
Procedure: (§1) For cell proliferation analysis, 1×10^3 cells were seeded in a 96-well plate and cultured for 24 hours. Thereafter, the cells were treated with 1 μM GEM for 0, 24, 48, and 72 hours, and cell viability was measured at each time point. The cells were then treated with thiazolyl blue tetrazolium bromide (MTT) (Sigma-Aldrich, St. Louis, MO, USA) and reacted for 1 hour. After the reaction was completed, the medium containing MTT was fully removed, and MTT formazan was dissolved using dimethyl sulfoxide (DMSO, Duchefa Biochemie, BH Haarlem, Netherlands). Thereafter, the absorbance was measured at 540 nm using a spectrophotometer microplate reader (Victor 3).

[2] = tested on: GRCA cell lines (gemcitabine-resistant 5637); assay: MTT cell viability / IC50 for gemcitabine, GRCA cell lines
Procedure: (§2) To analyze stepwise molecular mechanisms occurring during a process of anticancer drug resistance in bladder cancer patients, bladder cancer cell lines having resistance to gemcitabine (GEM) as a representative anticancer drug for bladder cancer were constructed. Specifically, five candidate groups A to E of the 5637 cell line were treated with 5 μM GEM (Eli Lilly and company, IN, USA) and cultured for 3 days. Thereafter, the residual cells were washed with phosphate-buffered saline (PBS) and replaced with a new medium. The process was repeated until the cells recovered to 90% confluency, and after each stage was completed, several cell stocks in the same state were stored in liquid nitrogen. Thereafter, the recovered cells were inoculated in a plate and additionally treated with GEM. A total of 15-phase GEM-resistant bladder cancer cell lines were constructed using the method, which were named GRCA, GRCB, GRCC, GRCD, and GRCE according to each group.
as §1

[3] = tested on: GRCB cell lines (gemcitabine-resistant 5637); assay: MTT cell viability / IC50 for gemcitabine, GRCB cell lines
Procedure: as §2, §1

[4] = P15 cell line, compared to other candidate groups, C of FIG. 1

Structure (SMILES): Nc1ccn([C@@H]2O[C@H](CO)[C@@H](O)C2(F)F)c(=O)n1 [GEM, gemcitabine]
- Resistance to GEM (cell viability) [1]: sensitive
- IC50 values for GEM ([2]; P0, P3, P7, P15 cell lines, A of FIG. 2): increased in a phase-dependent manner
- Resistance to GEM (cell viability) [2, 4]: significantly highly resistant
- Resistance to GEM across stages ([2]; stages P0, P2, P3, P5, P7, P10, P15, D of FIG. 1): increased in a phase-dependent manner
- IC50 values for GEM ([3]; P0, P3, P7, P15 cell lines, B of FIG. 2): increased in a phase-dependent manner
- Resistance to GEM (cell viability) [3, 4]: significantly highly resistant
- Resistance to GEM across stages ([3]; stages P0, P2, P3, P5, P7, P10, P15, E of FIG. 1): increased in a phase-dependent manner
